Measured values taken from the supplement of paper PMC10307832.

Columns and labels:
Experiment in all cases: relative viability (nuclei count vs DMSO), 5 days (fraction); higher = more cells survive
[1] = compound: CC(C)C[C@@H](C(=O)N[C@H](C(=O)OC1CCCC1)c1ccccc1)[C@H](O)C(=O)NO [Tosedostat] + CC(C)C[C@H](NC(=O)[C@H](Cc1ccccc1)NC(=O)c1cnccn1)B(O)O [Bortezomib] (partner 0.002 µM)
How it was run: (§1)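 For relative viability, nuclei counts in treated wells were divided by those in vehicle wells. Lung cancer cell lines had been pin-tool dosed in 1536-well plates the day after seeding and cultured for 5 days, then fixed and stained in one step (final 0.05% Triton X-100, 1% formaldehyde, 1 ug/ml Hoechst) and imaged at 4×. Doses were one drug alone or a fixed anchor-drug dose plus five library-drug doses (not always all listed) in √10 steps, and values are duplicate-plate medians.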

[2] = compound: CC(C)C[C@@H](C(=O)N[C@H](C(=O)OC1CCCC1)c1ccccc1)[C@H](O)C(=O)NO [Tosedostat] + Cc1nc(Nc2ncc(C(=O)Nc3c(C)cccc3Cl)s2)cc(N2CCN(CCO)CC2)n1 [Dasatinib] (partner 0.075 µM)
How it was run: as §1

[3] = compound: CC1=NN=C(O1)C2=NN=C(C=C2)N3CCC(CC3)OC4=C(C=CC(=C4)F)Cl + CC(=O)Nc1cccc(-n2c(=O)n(C3CC3)c(=O)c3c(Nc4ccc(I)cc4F)n(C)c(=O)c(C)c32)c1 [Trametinib] (partner 0.02 µM)
How it was run: as §1

[4] = compound: CC1=NN=C(O1)C2=NN=C(C=C2)N3CCC(CC3)OC4=C(C=CC(=C4)F)Cl + COc1cc2c(Oc3ccc(NC(=O)C4(C(=O)Nc5ccc(F)cc5)CC4)cc3F)ccnc2cc1OCCCN1CCOCC1 [Foretinib] (partner 0.25 µM)
How it was run: as §1

Row | Cell Line | relative viability ([1]; first compound 0.02 µM) | relative viability ([1]; first compound 0.06325 µM) | relative viability ([1]; first compound 0.2 µM) | relative viability ([1]; first compound 0.6325 µM) | relative viability ([1]; first compound 2 µM) | relative viability ([2]; first compound 0.02 µM) | relative viability ([2]; first compound 0.06325 µM) | relative viability ([2]; first compound 0.2 µM) | relative viability ([2]; first compound 0.6325 µM) | relative viability ([2]; first compound 2 µM) | relative viability ([3]; first compound 0.253 µM) | relative viability ([3]; first compound 0.8 µM) | relative viability ([3]; first compound 2.53 µM) | relative viability ([3]; first compound 8 µM) | relative viability ([4]; first compound 0.253 µM) | relative viability ([4]; first compound 2.53 µM) | relative viability ([4]; first compound 8 µM) | relative viability ([4]; first compound 0.8 µM)
1 | A-427 | 1.02 | 0.916 | 1.06 | 1.01 | 0.879 | 0.646 | 0.762 | 0.733 | 0.712 | 0.692 | 0.818 | 0.711 | 0.869 | 0.825 | 1.02 | 0.998 | 0.871 | 
2 | NCI-H441 | 0.471 | 0.396 | 0.332 | 0.396 | 0.404 | 0.702 | 0.61 | 0.583 | 0.445 | 0.539 | 0.343 | 0.327 | 0.462 | 0.409 | 0.658 | 0.686 | 0.605 | 0.78
3 | NCI-H1563 | 0.924 | 0.818 | 0.943 | 0.948 | 0.8 | 0.507 | 0.528 | 0.459 | 0.512 | 0.442 |  |  |  |  | 0.925 | 0.931 | 0.951 | 0.866
4 | NCI-H358 |  |  |  |  |  | 0.169 | 0.183 | 0.208 | 0.211 | 0.208 | 0.131 | 0.137 | 0.146 | 0.124 | 0.512 | 0.512 | 0.41 | 0.393
5 | LOU-NH91 | 0.5 | 0.545 | 0.484 | 0.564 | 0.44 | 0.6 | 0.584 | 0.568 | 0.51 | 0.42 |  | 0.722 | 0.744 | 0.77 | 0.896 | 0.927 | 0.9 | 0.847
6 | NCI-H3122 | 1.02 | 1.03 | 1.1 | 1.05 | 1.02 | 0.745 | 0.912 | 0.925 | 0.915 | 0.711 | 0.173 | 0.224 | 0.224 | 0.232 | 0.431 | 0.438 | 0.397 | 0.409
7 | HOP-62 | 0.719 | 0.931 | 0.805 | 0.526 | 0.498 | 0.678 | 0.628 | 0.665 | 0.685 | 0.57 | 0.361 | 0.361 | 0.361 | 0.397 | 0.806 | 0.806 | 0.543 | 0.833
8 | HARA | 1.16 | 1.08 | 1.1 | 1.1 | 0.942 | 0.304 | 0.282 | 0.235 | 0.234 | 0.195 | 0.438 | 0.369 | 0.448 | 0.322 | 0.538 | 0.317 | 0.273 | 0.289
9 | SW 1573 | 1.1 | 0.96 | 0.938 | 0.709 | 0.949 | 0.572 | 0.36 | 0.368 | 0.317 | 0.314 | 0.512 | 0.43 | 0.445 | 0.306 | 0.99 | 0.909 | 0.569 | 0.86
10 | NCI-H1993 | 1.02 | 1.22 | 0.852 | 0.872 | 0.642 | 0.471 | 0.561 | 0.502 | 0.519 | 0.505 | 0.453 | 0.523 | 0.655 | 0.593 | 0.664 | 0.709 | 0.7 | 0.682
